Measurements taken from US20240131032A1, “AN ACTIVITY-GUIDED MAP OF ELECTROPHILE-CYSTEINE INTERACTIONS IN PRIMARY HUMAN IMMUNE CELLS” (The Scripps Research Institute, priority 2019, published 2024).

Assays:
[1] = tested on: NuRD complex members (MBD2, MBD3, GATAD2B); assay: Cysteine reactivity profiles of NuRD complex members in treated T cells; format: binding, human; conditions: 3 h treatment
Protocol: (§1) FIG. 7B is a scatter plot representation of protein abundance changes caused by BPK-25 (10 μM, 24 h) in two independent replicate experiments, with decreases in NuRD complex components highlighted in red. FIG. 7C is a heatmap of top proteins with decreased abundance in BPK-25-treated T cells showing that the subset of these proteins in the NuRD complex (asterisks) were largely unaltered by other active compounds and blocked in their degradation by co-treatment with the proteasome inhibitor MG132. […] FIG. 7E is a bar graph […] showing time-dependent reductions in NuRD complex members in human T cells treated with BPK-25 (10 μM). Left, representative western blots. Right, quantification of changes in protein. […]
(§2) At individual TMT experiment level, the following filters were applied to remove low-quality peptides: removal of non-unique peptides; removal of half-tryptic peptides; removal of peptides with more than one internal miscleaved site; removal of peptides with low (<10,000) sum of reporter ion intensities for control channels, and peptides with high variation between the replicate control channels (coefficient of variance >0.5). R values (compound-treated vs. DMSO-treated) for each peptide entry were calculated using the reporter ion intensities of DMSO and compound treated TMT channels for each treatment group with a maximum ratio cap of 20. […]

[2] = biological target: T1, NuRD complex members (MBD2, MBD3, GATAD2B) (Homo sapiens, UniProt Q8WXI9); assay: as above; format: binding
T1 construct: endogenous in cells; host or cells: primary human T cells, 3 h treatment
Protocol: as §1, §2

T1 sequence (Q8WXI9 whole entry, one chain of several): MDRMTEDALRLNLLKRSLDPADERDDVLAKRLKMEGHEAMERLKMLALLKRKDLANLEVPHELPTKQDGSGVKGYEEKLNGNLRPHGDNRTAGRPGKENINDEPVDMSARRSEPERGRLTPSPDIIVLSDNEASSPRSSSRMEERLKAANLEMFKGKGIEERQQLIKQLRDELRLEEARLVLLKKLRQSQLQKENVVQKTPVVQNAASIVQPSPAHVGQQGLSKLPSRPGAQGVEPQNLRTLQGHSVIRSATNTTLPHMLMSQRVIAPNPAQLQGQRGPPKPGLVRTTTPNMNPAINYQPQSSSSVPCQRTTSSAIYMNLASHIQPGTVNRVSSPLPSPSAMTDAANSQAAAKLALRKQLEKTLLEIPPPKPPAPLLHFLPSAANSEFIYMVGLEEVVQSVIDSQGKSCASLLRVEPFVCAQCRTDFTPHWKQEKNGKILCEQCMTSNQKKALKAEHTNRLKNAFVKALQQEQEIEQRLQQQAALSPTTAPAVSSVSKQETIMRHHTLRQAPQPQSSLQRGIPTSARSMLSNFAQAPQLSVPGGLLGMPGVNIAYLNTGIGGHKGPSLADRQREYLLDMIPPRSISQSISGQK

Compound | reduction in C10/11 and C359 in MBD2, C266 in MBD3, and C308 of GATAD2B (cysteine reactivity profiles) [1] [%] | apparent reactivity of C308 of GATAD2B [2]
C=CC(=O)N(Cc1cccc(Cl)n1)c1ccc(C(=O)Nc2ccccc2)nc1 [BPK-25] | ~50 | 
COC(=O)/C=C/C(=O)OC [DMF, reference compound] |  | decreased the apparent reactivity
